pIC50: −log10 of the molar value.
Key:
Test in all cases: biochemical
[1] = target: MLL1 Complex (Homo sapiens, UniProt Q03164); set-up: gene KMT2A
[2] = target: T1, SMYD1 (Homo sapiens, UniProt Q8NB12)
T1 sequence (Q8NB12 1-490): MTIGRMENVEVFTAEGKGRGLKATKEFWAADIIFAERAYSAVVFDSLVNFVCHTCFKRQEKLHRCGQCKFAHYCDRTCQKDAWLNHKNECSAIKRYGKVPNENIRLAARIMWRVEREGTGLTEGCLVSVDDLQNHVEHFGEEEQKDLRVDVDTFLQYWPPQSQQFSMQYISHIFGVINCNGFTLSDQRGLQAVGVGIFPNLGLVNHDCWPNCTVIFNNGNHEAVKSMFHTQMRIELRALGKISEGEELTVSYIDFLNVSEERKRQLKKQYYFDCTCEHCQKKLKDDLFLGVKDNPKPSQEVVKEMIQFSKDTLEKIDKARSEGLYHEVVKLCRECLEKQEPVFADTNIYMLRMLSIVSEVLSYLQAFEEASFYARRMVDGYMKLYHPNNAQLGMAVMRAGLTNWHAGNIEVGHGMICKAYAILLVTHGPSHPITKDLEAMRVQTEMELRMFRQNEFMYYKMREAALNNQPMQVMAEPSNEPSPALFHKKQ

[3] = target: T2, SETD2 (Homo sapiens, UniProt Q9BYW2)
T2 sequence (Q9BYW2 1434-1711): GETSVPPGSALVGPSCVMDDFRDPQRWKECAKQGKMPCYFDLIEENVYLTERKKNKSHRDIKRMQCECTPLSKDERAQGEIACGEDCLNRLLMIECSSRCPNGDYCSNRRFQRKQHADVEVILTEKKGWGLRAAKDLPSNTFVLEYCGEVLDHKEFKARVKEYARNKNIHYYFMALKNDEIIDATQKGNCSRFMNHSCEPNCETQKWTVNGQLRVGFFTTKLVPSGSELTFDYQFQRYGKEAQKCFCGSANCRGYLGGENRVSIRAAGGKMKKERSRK

[4] = target: DNMT3b/3L (Homo sapiens, UniProt Q9UBC3)
[5] = target: DNMT3a (Homo sapiens, UniProt Q9Y6K1)
[6] = target: T3, SET7/9 (Homo sapiens, UniProt Q8WTS6)
T3 construct: gene SETD7
T3 sequence (Q8WTS6 1-366): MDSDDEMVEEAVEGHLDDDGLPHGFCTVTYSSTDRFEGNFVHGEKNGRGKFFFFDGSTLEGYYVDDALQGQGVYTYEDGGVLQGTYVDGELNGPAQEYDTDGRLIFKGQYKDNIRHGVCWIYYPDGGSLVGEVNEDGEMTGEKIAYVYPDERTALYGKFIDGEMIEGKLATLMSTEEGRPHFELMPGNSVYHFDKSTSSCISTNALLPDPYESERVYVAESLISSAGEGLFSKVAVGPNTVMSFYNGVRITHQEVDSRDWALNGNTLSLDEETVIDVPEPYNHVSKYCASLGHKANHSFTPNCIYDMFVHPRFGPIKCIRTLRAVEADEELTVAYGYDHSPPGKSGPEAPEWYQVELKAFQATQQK

[7] = target: SUV39H2 (Homo sapiens, UniProt Q9H5I1)
[8] = target: MLL2 Complex (Homo sapiens, UniProt O14686); set-up: gene KMT2D
[9] = target: PRMT3 (Homo sapiens, UniProt O60678)
[10] = target: T4, GLP (Homo sapiens, UniProt Q9H9B1)
T4 construct: gene EHMT1
T4 sequence (Q9H9B1 1-1298): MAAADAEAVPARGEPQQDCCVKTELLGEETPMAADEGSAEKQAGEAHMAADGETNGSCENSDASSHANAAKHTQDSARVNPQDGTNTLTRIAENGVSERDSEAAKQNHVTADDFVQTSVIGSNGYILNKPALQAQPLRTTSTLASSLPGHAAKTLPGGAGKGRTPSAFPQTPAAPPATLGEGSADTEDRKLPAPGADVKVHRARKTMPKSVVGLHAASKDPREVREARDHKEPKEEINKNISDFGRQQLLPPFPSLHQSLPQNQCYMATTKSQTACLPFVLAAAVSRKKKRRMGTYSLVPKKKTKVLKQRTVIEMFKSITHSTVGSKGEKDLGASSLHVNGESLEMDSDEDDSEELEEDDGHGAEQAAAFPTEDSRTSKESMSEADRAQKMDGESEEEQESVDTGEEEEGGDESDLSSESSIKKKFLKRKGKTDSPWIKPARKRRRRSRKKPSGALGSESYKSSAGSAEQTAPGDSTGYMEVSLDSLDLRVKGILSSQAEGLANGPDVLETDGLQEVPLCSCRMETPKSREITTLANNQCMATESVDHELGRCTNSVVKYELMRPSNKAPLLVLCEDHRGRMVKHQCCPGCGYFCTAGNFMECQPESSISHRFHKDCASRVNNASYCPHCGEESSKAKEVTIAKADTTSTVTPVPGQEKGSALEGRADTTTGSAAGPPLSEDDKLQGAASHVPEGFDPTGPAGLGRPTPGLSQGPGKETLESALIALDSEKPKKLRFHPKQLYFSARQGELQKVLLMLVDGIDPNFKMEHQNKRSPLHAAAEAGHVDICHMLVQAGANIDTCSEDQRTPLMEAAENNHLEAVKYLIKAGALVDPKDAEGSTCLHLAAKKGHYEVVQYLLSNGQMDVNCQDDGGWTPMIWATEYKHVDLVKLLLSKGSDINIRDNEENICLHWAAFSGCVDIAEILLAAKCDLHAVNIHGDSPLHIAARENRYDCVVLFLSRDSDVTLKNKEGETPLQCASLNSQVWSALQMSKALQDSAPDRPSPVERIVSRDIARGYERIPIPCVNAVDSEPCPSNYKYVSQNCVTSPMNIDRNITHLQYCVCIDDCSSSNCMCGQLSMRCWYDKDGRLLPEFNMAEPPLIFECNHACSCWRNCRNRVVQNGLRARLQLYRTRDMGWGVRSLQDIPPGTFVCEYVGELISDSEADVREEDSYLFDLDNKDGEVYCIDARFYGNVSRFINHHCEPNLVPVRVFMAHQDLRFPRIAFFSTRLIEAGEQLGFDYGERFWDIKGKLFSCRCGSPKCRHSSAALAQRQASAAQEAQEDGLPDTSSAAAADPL

[11] = target: MLL3 Complex (Homo sapiens, UniProt Q8NEZ4); set-up: gene KMT2C
[12] = target: MLL4 Complex (Homo sapiens, UniProt Q9UMN6); set-up: gene KMT2B
[13] = target: SET1b Complex (Homo sapiens, UniProt Q9UPS6); set-up: gene SETD1B
SET1b Complex, sequence (Q9UPS6 whole entry, looked up, one chain of several): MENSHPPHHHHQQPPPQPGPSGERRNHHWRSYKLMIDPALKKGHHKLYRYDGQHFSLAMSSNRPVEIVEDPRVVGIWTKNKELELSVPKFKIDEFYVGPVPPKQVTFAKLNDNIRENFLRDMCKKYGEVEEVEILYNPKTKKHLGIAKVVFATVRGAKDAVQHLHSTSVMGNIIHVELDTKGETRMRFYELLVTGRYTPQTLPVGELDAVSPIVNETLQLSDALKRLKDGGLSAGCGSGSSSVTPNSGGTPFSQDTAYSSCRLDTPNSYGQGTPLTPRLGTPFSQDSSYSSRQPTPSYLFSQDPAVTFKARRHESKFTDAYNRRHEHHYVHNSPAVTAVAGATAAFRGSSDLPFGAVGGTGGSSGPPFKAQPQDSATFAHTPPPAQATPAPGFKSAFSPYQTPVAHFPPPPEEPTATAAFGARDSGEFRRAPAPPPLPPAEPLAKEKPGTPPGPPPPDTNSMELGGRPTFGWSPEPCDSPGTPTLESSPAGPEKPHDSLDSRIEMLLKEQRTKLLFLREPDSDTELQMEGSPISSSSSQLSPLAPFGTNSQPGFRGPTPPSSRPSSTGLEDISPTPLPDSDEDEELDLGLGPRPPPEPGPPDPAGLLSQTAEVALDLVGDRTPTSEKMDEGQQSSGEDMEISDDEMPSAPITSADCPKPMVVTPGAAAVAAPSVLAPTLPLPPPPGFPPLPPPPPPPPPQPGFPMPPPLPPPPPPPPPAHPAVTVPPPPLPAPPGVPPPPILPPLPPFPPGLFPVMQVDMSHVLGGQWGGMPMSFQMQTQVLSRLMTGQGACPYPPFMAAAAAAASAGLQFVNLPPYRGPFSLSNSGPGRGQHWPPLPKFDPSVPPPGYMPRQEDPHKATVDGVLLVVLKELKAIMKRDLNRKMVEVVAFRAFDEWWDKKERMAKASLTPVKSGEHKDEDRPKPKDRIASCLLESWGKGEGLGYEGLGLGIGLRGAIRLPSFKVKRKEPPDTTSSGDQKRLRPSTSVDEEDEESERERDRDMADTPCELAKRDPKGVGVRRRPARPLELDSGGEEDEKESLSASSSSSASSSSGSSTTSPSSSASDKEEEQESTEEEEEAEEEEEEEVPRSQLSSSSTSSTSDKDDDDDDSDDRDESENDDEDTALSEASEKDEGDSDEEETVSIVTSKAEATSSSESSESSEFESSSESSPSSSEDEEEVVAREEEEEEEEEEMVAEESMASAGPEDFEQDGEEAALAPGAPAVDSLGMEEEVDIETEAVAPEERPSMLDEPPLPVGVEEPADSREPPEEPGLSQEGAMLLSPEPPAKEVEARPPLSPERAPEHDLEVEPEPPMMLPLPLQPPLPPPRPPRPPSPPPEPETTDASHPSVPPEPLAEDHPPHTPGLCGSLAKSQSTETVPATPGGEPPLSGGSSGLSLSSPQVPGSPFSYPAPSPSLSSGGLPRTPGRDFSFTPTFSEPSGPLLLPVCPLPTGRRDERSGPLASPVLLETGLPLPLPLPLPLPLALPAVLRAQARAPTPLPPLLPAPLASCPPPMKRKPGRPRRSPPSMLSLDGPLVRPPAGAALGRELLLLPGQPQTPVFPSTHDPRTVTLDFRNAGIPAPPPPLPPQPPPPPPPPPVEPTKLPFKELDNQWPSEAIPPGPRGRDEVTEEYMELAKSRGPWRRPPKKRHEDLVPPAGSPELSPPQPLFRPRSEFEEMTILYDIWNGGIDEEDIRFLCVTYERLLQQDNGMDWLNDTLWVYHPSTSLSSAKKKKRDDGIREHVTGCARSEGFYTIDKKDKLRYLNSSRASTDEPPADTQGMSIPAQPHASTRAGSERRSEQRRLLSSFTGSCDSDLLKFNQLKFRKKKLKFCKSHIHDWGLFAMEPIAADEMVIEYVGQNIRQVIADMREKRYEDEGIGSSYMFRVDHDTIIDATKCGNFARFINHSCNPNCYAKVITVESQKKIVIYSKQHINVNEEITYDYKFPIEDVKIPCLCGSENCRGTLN

MLL4 Complex, sequence (Q9UMN6 whole entry, looked up, one chain of several): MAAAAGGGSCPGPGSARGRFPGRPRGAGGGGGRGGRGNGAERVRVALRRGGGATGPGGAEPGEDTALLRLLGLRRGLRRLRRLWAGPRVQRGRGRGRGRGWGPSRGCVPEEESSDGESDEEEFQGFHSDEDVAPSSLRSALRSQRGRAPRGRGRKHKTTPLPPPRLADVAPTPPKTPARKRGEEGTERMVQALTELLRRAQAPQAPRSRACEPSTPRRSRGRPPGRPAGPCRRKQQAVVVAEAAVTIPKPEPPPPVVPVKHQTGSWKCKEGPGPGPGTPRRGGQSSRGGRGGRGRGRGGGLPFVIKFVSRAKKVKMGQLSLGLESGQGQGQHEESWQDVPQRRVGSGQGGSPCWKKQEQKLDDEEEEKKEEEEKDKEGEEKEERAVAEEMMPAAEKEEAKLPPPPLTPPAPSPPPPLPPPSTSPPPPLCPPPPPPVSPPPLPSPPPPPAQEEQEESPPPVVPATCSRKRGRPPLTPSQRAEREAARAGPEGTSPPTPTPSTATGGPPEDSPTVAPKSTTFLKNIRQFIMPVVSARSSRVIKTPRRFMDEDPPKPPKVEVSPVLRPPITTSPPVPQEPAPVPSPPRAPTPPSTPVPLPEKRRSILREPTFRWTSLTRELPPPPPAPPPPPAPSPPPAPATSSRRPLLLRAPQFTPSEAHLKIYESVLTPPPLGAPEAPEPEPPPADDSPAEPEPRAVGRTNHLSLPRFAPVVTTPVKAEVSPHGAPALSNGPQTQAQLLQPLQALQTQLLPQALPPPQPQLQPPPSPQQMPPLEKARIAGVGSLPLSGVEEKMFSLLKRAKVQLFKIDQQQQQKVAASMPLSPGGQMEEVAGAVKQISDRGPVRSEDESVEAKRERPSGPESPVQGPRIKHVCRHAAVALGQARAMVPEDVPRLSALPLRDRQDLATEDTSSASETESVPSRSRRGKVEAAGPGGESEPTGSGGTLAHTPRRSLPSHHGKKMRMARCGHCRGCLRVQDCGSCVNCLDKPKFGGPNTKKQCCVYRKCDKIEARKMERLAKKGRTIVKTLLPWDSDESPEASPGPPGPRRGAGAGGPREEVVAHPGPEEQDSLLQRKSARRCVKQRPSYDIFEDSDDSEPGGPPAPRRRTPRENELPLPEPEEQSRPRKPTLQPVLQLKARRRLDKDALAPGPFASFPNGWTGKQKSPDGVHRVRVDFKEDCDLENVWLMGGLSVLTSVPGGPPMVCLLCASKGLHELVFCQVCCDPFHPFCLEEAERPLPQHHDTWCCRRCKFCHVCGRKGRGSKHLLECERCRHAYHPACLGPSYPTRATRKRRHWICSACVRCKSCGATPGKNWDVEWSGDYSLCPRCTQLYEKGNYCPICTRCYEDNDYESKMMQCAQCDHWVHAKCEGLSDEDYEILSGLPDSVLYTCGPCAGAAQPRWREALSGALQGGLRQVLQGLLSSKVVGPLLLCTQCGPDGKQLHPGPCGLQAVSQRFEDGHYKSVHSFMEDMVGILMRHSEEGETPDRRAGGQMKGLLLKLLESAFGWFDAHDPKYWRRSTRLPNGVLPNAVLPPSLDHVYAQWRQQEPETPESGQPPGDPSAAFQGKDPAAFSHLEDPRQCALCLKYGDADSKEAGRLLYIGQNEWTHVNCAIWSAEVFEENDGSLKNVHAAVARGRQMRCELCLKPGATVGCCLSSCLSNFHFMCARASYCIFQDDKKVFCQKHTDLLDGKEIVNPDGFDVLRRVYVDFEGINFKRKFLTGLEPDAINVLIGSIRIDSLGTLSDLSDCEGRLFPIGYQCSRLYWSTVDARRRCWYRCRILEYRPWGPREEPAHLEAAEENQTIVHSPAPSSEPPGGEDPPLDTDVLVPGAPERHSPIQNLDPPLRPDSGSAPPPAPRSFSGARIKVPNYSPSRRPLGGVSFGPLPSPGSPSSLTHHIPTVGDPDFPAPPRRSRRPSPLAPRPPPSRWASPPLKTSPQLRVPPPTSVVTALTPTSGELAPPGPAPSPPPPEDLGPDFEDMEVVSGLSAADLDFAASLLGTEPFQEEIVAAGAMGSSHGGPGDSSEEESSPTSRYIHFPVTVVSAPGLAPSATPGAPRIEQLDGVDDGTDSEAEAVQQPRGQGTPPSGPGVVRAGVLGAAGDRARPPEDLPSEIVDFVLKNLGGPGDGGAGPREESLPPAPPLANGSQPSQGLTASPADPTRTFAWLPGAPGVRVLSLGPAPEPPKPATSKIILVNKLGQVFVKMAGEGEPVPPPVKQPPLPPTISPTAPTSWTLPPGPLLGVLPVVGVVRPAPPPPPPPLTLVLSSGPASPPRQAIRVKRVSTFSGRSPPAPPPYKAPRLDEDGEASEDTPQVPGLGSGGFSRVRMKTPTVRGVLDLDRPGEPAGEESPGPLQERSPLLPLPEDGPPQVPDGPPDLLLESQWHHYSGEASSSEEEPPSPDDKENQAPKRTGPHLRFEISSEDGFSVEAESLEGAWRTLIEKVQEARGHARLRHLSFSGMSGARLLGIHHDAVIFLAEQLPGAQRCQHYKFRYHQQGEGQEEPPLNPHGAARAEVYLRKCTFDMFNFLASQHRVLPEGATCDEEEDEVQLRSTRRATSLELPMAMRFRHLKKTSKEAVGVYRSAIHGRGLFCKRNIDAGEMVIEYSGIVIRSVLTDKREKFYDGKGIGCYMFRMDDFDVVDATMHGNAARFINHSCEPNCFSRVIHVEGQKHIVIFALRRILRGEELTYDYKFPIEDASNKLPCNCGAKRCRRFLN
SUV39H2, sequence (Q9H5I1 48-410): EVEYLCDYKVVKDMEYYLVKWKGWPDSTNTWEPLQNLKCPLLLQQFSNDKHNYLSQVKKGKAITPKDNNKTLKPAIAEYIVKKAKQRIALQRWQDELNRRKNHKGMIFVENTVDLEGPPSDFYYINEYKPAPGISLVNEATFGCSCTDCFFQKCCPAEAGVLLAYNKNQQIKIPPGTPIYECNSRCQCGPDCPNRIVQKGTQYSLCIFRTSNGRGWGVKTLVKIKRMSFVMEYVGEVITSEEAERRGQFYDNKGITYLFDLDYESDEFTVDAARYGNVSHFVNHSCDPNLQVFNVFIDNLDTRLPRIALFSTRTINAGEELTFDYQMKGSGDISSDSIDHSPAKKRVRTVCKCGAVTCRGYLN

Nc1ncnc2c1ncn2[C@@H]1O[C@H](CSCC[C@H](N)C(=O)O)[C@@H](O)[C@H]1O [SAH]
pIC50 [1]: 6.26
pIC50 [2]: 4.43
pIC50 [3]: 5.28
pIC50 [4]: 7.92
pIC50 [5]: 6.92
pIC50 [6]: 4.08
pIC50 [7]: 4.26
pIC50 [8]: 4.57
pIC50 [9]: 5.64
pIC50 [10]: 6.28
pIC50 [11]: 4.24
pIC50 [12]: 5.60
pIC50 [13]: 5.82
